Read-outs that look alike come from different tables or passages of the source.
Columns and labels:
Format in all cases: in vivo, rat
corneal alkali burn = details: for Estimated area of NV / CCT: mean±standard deviation; for Opacity score: median (inter-quartile range); for CCT: rat alkali burn, subconjunctival gel, 1.6 mg of Dex/eye
Method: All procedures involving animals conformed with the IACUC research guidelines by the Association for Research in Vision and Ophthalmology Statement for the use of Animals in Ophthalmic and Vision Research and Johns Hopkins University. A total of 57 Lewis rats (7 to 8 weeks of age) were obtained from Harlan Laboratories Inc. (Frederick, MD). All animals weighed between 150 and 200 g, and they were housed at constant temperature (20±1° C.) and humidity (50±5%). They were fed standard rat chow and had access to water ad libitum. All procedures and tests were performed under general anesthesia with intramuscular injection of ketamine 0.9% (Bio-niche Pharma, Lake Forest, IL, USA)/xylazine 0.1% (Phoenix Pharmaceuticals, St. Joseph, MO, USA) and topical proparacaine 0.5% (Sandoz, Holzkirchen, Germany). Corneal alkali burn was generated by applying 0.5N NaOH on cornea. Briefly, sample discs SS-033 0.5 cm in diameter (WESCOR, Logan, Utah, USA) were cut in to 4 quadrants. The quadrant was soaked in 0.5N NaOH for 10 seconds and then placed on central cornea for 15 s. The burn area and the conjunctival sac were immediately irrigated with 30 mL of BSS solution using an eyedrop bottle.
Corneal alkali burn was performed on rats as described in Example 7.
After alkali burn, the animals were randomized for treatment in one of the following three groups: (i) Dendrimer-Dexamethasone conjugates entrapped in injectable, dendrimer-hyaluronic acid photocrosslinked gel with a minimal amount of free dexamethasone (D-Dex group, n=10), (ii) free dexamethasone in injectable, dendrimer-hyaluronic acid photocrosslinked gel (free-dex group, n=10), and (iii) no drug, only injectable, dendrimer-hyaluronic acid photocrosslinked gel, n=10. Both D-Dex and free-Dex groups were treated with equivalent Dex basis present in both D-Dex and free Dex formulations (1.6 mg of Dex/eye). […] The free dexamethasone group received a total of 1.6 mg of free dexamethasone. […] All forms of drugs were incorporated into injectable gel formulations (it is the same gel formulation as of example 4). The gel components are premixed and loaded in to the syringe and crosslinked to form gel using UV exposure. At the time of injection the components are in the form of gel) and injected subconjunctivally using 30-gauge, 0.5 cc insulin syringes.
Animals were assessed at baseline and at the following post-exposure time points: 24 hours, 72 hours, and 7 days. A subset of the animals was also followed up to 14 days.
The central corneal thickness (CCT) and stromal structure analysis were done using anterior chamber optical coherence tomography (OCT) (Bioptigen Envisu R-class OCT, Bioptigen, NC, USA).
Changes in intraocular pressure (IOP) were measured using a handheld tonometer (Icare LAB tonometer, Icare, Finland). The settings R for rat were chosen and three individual measurements of IOP were made for each eye for accuracy.
Corneal opacity was scored by grading the degree of transparency as previously reported by Larkin D F, et al., Clin Exp Immunol., 107:381-391 (1997). The estimated area of neovascularization (NV) was assessed by estimating the radial penetration of the neovascular vessels and their extent in degrees, and by assuming a mean corneal […] of 2.5 mm, so that the maximal area of NV was no more than 2.52π mm^2 (=19.63 mm^2).

MCP-1 mRNA = assay: Cytokine mRNA expression in corneal tissue by RT-PCR: MCP-1
Method: (§1) For cytokine expression analysis, the corneas (n=10, for each group) were snap frozen in liquid nitrogen and homogenized carefully into tissue powder using pre-cooled (in liquid nitrogen) porcelain mortar and pestles. The total RNA was purified with TRIzol reagent (Life Technologies, Grand Island, NY) following the manufacturer's instruction. 3 μg of total RNA was reverse-transcribed to cDNA using High-capacity cDNA Reverse Transcription System (Life Technologies) according to the manufacturer's instructions. qRT-PCR was performed with fast SYBR Green Master Mix (Life Technologies) by a StepOnePlus Real-Time PCR System (Life Technologies). Rat GAPDH was used to normalize the expression levels of target gene and calculated by the comparative cycle threshold Ct method (2^−(ΔΔCt)).

IL-6 mRNA = assay: Cytokine mRNA expression in corneal tissue by RT-PCR: IL-6; details: POD7, normalized to healthy controls, mean±SEM
Method: as §1

C[C@@H]1C[C@H]2[C@@H]3CCC4=CC(=O)C=C[C@]4(C)[C@@]3(F)[C@@H](O)C[C@]2(C)[C@@]1(O)C(=O)CO [Free-Dex, Dexamethasone]
Estimated area of NV (corneal alkali burn; Baseline): 0 ± 0 mm^2
Opacity score (corneal alkali burn; Baseline, grade 0-4): 0(0)
CCT (corneal alkali burn; Baseline): 142.86 ± 8.68 μm
Estimated area of NV (corneal alkali burn; POD1): 0 ± 0 mm^2
Opacity score (corneal alkali burn; POD1, grade 0-4): 3(3)
CCT (corneal alkali burn; POD1): 304.95 ± 87.23 μm
median opacity score (corneal alkali burn; POD3, grade 0-4): 3.5
Estimated area of NV (corneal alkali burn; POD3): 3.32 ± 1.65 mm^2
Opacity score (corneal alkali burn; POD3, grade 0-4): 3.5(1)
CCT (corneal alkali burn; POD3): 357.71 ± 115.58 μm
Estimated area of NV (corneal alkali burn; POD7): 3.8 ± 2.89 mm^2
Opacity score (corneal alkali burn; POD7, grade 0-4): 1(1)
CCT (corneal alkali burn; POD7): 229.57 ± 91.54 μm
mean area occupied by neo-vessels (corneal alkali burn; POD7 as printed in text, spread not defined): 3.32±0.34 mm^2
Estimated area of NV (corneal alkali burn; POD14): 43.32 ± 5.46 mm^2
Opacity score (corneal alkali burn; POD14, grade 0-4): 1(2)
CCT (corneal alkali burn; POD14): 226.57 ± 63.67 μm
MCP-1 mRNA levels significantly lower compared to the positive controls (MCP-1 mRNA; POD7, p=0.259): not true
MCP-1 mRNA levels (MCP-1 mRNA; POD14, corneal tissue, normalized to healthy controls, mean±SEM): 15.4±3.22
IL-6 mRNA levels (IL-6 mRNA): 3.0±0.3

From patent publication US20260232865A1, “DENDRIMER-BIOADHESIVE POLYMER HYDROGEL NANOGLUE AND USE THEREOF” (The Johns Hopkins University, priority 2016, published 2026)
